What is called IC50 is the concentration that gives 50% inhibition.

The values that follow come from patent US20150258101A1 (Proximagen Limited, priority 2014, published 2015).

Molecules are shown by their SMILES. Where a name gives a salt, the structure may show the parent alone.

For this assay, the target named is T1, purified recombinantly expressed human SSAO (Homo sapiens, UniProt Q16853).
T1 construct: made in house
T1 sequence (Q16853 1-763): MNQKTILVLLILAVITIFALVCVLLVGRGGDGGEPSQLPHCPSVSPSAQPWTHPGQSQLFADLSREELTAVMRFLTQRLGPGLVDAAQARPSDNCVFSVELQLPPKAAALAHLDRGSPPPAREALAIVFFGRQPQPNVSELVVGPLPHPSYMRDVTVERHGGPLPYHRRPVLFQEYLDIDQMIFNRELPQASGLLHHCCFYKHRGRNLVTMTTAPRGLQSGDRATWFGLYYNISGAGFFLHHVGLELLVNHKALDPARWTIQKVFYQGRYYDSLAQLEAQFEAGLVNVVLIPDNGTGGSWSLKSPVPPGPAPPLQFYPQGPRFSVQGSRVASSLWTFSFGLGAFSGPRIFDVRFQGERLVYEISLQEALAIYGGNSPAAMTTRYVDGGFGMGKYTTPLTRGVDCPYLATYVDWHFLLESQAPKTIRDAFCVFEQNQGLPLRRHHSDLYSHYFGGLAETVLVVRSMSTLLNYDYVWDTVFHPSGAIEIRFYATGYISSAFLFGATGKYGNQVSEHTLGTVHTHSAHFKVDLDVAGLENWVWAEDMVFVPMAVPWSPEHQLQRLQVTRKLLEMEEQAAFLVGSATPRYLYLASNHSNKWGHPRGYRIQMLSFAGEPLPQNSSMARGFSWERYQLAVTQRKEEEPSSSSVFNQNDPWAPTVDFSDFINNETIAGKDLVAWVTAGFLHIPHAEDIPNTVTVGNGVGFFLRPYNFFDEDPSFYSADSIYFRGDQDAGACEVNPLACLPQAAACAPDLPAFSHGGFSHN
Kind of assay: SSAO enzyme inhibition assay (benzylamine substrate; hydrogen peroxide/HRP-coupled or 14C aldehyde detection). It counts as biochemical. As to conditions: SSAO inhibitory activity, RT. The method, then:
All primary assays were performed at RT. with purified recombinantly expressed human SSAO. Enzyme was prepared essentially as described in Öhman et al. (Protein Expression and Purification 46 (2006) 321-331). In addition, secondary- and selectivity assays were performed using SSAO prepared from various tissues or purified rat recombinant SSAO. The enzyme activity was assayed with benzylamine as substrate by measuring either benzaldehyde production, using ^14C-labeled substrate, or by utilizing the production of hydrogen peroxide in a horseradish peroxidase (HRP) coupled reaction. Briefly, test compounds were dissolved in dimethyl sulfoxide (DMSO) to a concentration of 10 mM. Dose-response measurements were assayed by either creating 1:10 serial dilutions in DMSO to produce a 7 point curve or by making 1:3 serial dilutions in DMSO to produce 11 point curves.
In a horseradish peroxidase (HRP) coupled reaction, hydrogen peroxide oxidation of 10-acetyl-3,7-dihydroxyphenoxazine produced resorufin, which is a highly fluorescent compound (Zhout and Panchuk-Voloshina. Analytical Biochemistry 253 (1997) 169-174; Amplex® Red Hydrogen Peroxide/peroxidase Assay kit, Invitrogen A22188). Enzyme and compounds in 50 mM sodium phosphate, pH 7.4 were set to pre-incubate in flat-bottomed microtiter plates for approximately 15 min before initiating the reaction by addition of a mixture of HRP, benzylamine and Amplex reagent. Benzylamine concentration was fixed at a concentration corresponding to the Michaelis constant, determined using standard procedures. Fluorescence intensity was then measured at several time points during 1-2 h, exciting at 544 nm and reading the emission at 590 nm. For the human SSAO assay final concentrations of the reagents in the assay wells were: SSAO enzyme 1 ug/ml, benzylamine 100 uM, Amplex reagent 20 uM, HRP 0.1 U/mL and varying concentrations of test compound. The inhibition was measured as % decrease of the signal compared to a control without inhibitor (only diluted DMSO). The background signal from a sample containing no SSAO enzyme was subtracted from all data points. Data was fitted to a four parameter logistic model and IC50 values were calculated using the Graph Pad Prism 4 or XLfit 4 programs.
SSAO activity was assayed using 14C-labeled benzylamine and analysed by measuring radioactive benzaldehyde. In a white 96-well optiplate (Packard), 20 uL of diluted test compound was pre-incubated at room temperature with 20 uL SSAO enzyme for approximately 15 min with continuous agitation. All dilutions were made with PBS. The reaction was initiated by adding 20 uL of the benzylamine substrate solution containing [7-14C] Benzylamine hydrochloride (CFA589, GE Healthcare). The plate was incubated for 1 h as above after which the reaction was stopped by acidification (10 uL 1M aq HCl). Then 90 uL Micro Scint-E solution (Perkin-Elmer) was added to each well and the plate was continuously mixed for 15 min. Phase separation occurred instantly and activity was read in a Topcount scintillation counter (Perkin-Elmer). In the final reaction well, the human recombinant SSAO concentration was 10 ug/ml. In order to optimize sensitivity, the substrate concentration was decreased as compared to the HRP coupled assay in order to get a higher fraction of radioactive product. In the human SSAO assay, benzylamine concentration was 40 uM (0.2 uCi/mL). Data was analysed as above.
On to `CC(=O)N1CCCN(c2ccc(-c3nc4ccncc4n3-c3ccc(F)cc3)cn2)CC1` [Example 87, 1-(4-{5-[3-(4-Fluorophenyl)-3H-imidazo[4,5-c]pyridin-2-yl]pyridin-2-yl}-1,4-diazepan-1-yl)ethan-1-one; bis(trifluoroacetic acid)], for which the half-maximal inhibitory concentration (IC50) is less than 50 nM. In the case of `NC(=O)N1CCN(c2ccc(-c3nc4ccncc4n3-c3ccc(Cl)cc3)cn2)CC1` [Example 90, 4-{5-[3-(4-Chlorophenyl)-3H-imidazo[4,5-c]pyridin-2-yl]pyridin-2-yl}piperazine-1-carboxamide dihydrochloride], the 50% inhibitory concentration (IC50) is less than 50 nM.

As for `NC(=O)N1CCN(c2ncc(-c3nc4ccncc4n3-c3ccc(Cl)cc3)o2)CC1` [Example 93, 4-{5-[3-(4-Chlorophenyl)-3H-imidazo[4,5-c]pyridin-2-yl]-1,3-oxazol-2-yl}piperazine-1-carboxamide], the IC50 is 50 to 200 nM. Take `NC(=O)N1CCCN(c2ccc(-c3nc4ccncc4n3-c3ccc(F)cc3)cn2)CC1` [Example 94, 4-{5-[3-(4-Fluorophenyl)-3H-imidazo[4,5-c]pyridin-2-yl]pyridin-2-yl}-1,4-diazepane-1-carboxamide]: the IC50 is 200 to 1200 nM.

Consider `c1cc2nc(-c3cnc(N4CCOCC4)nc3)n(-c3ccc(C4CC4)cc3)c2cn1` [Example 96, 4-{5-[3-(4-Cyclopropylphenyl)-3H-imidazo[4,5-c]pyridin-2-yl]pyrimidin-2-yl}morpholine], for which the IC50 is 50 to 200 nM. As for `Cc1ccc(-n2c(-c3cnc(N4CCOCC4)cc3C)nc3ccncc32)cc1` [Example 97, 4-{4-Methyl-5-[3-(4-methylphenyl)-3H-imidazo[4,5-c]pyridin-2-yl]pyridin-2-yl}morpholine], the figure is 200 to 1200 nM. For the compound `O=c1cc(N2CCOCC2)[nH]cc1-c1nc2ccncc2n1-c1ccc(F)cc1` [Example 99, 5-[3-(4-Fluorophenyl)-3H-imidazo[4,5-c]pyridin-2-yl]-2-(morpholin-4-yl)-1,4-dihydropyridin-4-one], the concentration for half-maximal inhibition (IC50) is less than 50 nM. In the case of `Cc1cc(NC2CCOCC2)ncc1-c1nc2ccncc2n1-c1ccc(F)cc1` [Example 100, 5-[3-(4-Fluorophenyl)-3H-imidazo[4,5-c]pyridin-2-yl]-4-methyl-N-(oxan-4-yl)pyridin-2-amine], the IC50 is 200 to 1200 nM. As for `Cc1cc(NCC2CC2)ncc1-c1nc2ccncc2n1-c1ccc(F)cc1` [Example 101, N-(Cyclopropylmethyl)-5-[3-(4-fluorophenyl)-3H-imidazo[4,5-c]pyridin-2-yl]-4-methylpyridin-2-amine], the figure is 50 to 200 nM; as for `Cc1ccc(-n2c(-c3ccc(N4C[C@@H](C)O[C@@H](C)C4)nc3)nc3ccncc32)cn1` [Example 103, (2R,6S)-2,6-Dimethyl-4-{5-[3-(6-methylpyridin-3-yl)-3H-imidazo[4,5-c]pyridin-2-yl]pyridin-2-yl}morpholine; tris(trifluoroacetic acid)], 50 to 200 nM. Regarding `Cc1ccc(-n2c(-c3ccc(N4C[C@@H](C)O[C@@H](C)C4)nc3)nc3ccncc32)nc1` [Example 104, (2R,6S)-2,6-Dimethyl-4-{5-[3-(5-methylpyridin-2-yl)-3H-imidazo[4,5-c]pyridin-2-yl]pyridin-2-yl}morpholine], the half-maximal inhibitory concentration (IC50) is less than 50 nM. Consider `Nc1ccc(-c2nc3ccncc3n2-c2ccc(Cl)cc2F)cn1` [Example 105, 5-[3-(4-Chloro-2-fluorophenyl)-3H-imidazo[4,5-c]pyridin-2-yl]pyridin-2-amine], for which the IC50 was in the range of 200 to 1200 nM. As for `CN1CCN(c2ccc(-c3nc4ccncc4n3-c3ccc(F)cc3)cn2)CC1=O` [Example 106, 4-{5-[3-(4-Fluorophenyl)-3H-imidazo[4,5-c]pyridin-2-yl]pyridin-2-yl}-1-methylpiperazin-2-one], the figure is 50 to 200 nM; as for `Cc1ccc(-n2c(-c3cnc(N4CCOCC4)cc3C)nc3ccncc32)cn1` [Example 107, 4-{4-Methyl-5-[3-(6-methylpyridin-3-yl)-3H-imidazo[4,5-c]pyridin-2-yl]pyridin-2-yl}morpholine], less than 50 nM.

In the case of `Cc1nc(N2CCOCC2)ccc1-c1nc2ccncc2n1-c1ccc(F)cc1` [Example 108, 4-{5-[3-(4-Fluorophenyl)-3H-imidazo[4,5-c]pyridin-2-yl]-6-methylpyridin-2-yl}morpholine], the half-inhibitory concentration (IC50) fell in the range of 200 to 1200 nM. As for `CN(C)c1cc(-c2nc3ccncc3n2-c2ccc(F)cc2)ccn1` [Example 109, 4-[3-(4-Fluorophenyl)-3H-imidazo[4,5-c]pyridin-2-yl]-N,N-dimethylpyridin-2-amine], the figure is 200 to 1200 nM; as for `Fc1ccc(-n2c(-c3ccc(OC4CCOC4)nc3)nc3ccncc32)cc1` (centres unmarked) [Example 112, 5-[3-(4-Fluorophenyl)-3H-imidazo[4,5-c]pyridin-2-yl]-2-(oxolan-3-yloxy)pyridine], less than 50 nM. On to `Fc1ccc(-n2c(-c3ccc(OC4CCOCC4)nc3)nc3ccncc32)cc1` [Example 113, 5-[3-(4-Fluorophenyl)-3H-imidazo[4,5-c]pyridin-2-yl]-2-(oxan-4-yloxy)pyridine], for which the IC50 was less than 50 nM. Take `Cn1ccc(-c2nc3ccncc3n2-c2ccc(F)cc2)cc1=O` [Example 114, 4-[3-(4-Fluorophenyl)-3H-imidazo[4,5-c]pyridin-2-yl]-1-methyl-1,2-dihydropyridin-2-one]: the half-maximal inhibitory concentration (IC50) was 200 to 1200 nM.

`O=c1cc(-c2nc3ccncc3n2-c2ccc(F)cc2)ccn1C1CC1` [Example 115, 1-Cyclopropyl-4-[3-(4-fluorophenyl)-3H-imidazo[4,5-c]pyridin-2-yl]-1,2-dihydropyridin-2-one]: the half-maximal inhibitory concentration (IC50) was less than 50 nM. The figure for `O=c1cc(-c2nc3ccncc3n2-c2ccc(Cl)cc2F)ccn1C1CC1` [Example 116, 4-[3-(4-Chloro-2-fluorophenyl)-3H-imidazo[4,5-c]pyridin-2-yl]-1-cyclopropyl-1,2-dihydropyridin-2-one] is 50 to 200 nM. The figure for `Cc1ccc(-n2c(-c3cnc(N4C[C@@H](C)O[C@@H](C)C4)nc3)nc3ccncc32)cn1` [Example 118, (2R,6S)-2,6-Dimethyl-4-{5-[3-(6-methylpyridin-3-yl)-3H-imidazo[4,5-c]pyridin-2-yl]pyrimidin-2-yl}morpholine] is less than 50 nM; for `Cc1ccc(-n2c(-c3cnc(NC4CCOCC4)nc3)nc3ccncc32)cc1` [Example 119, 5-[3-(4-Methylphenyl)-3H-imidazo[4,5-c]pyridin-2-yl]-N-(oxan-4-yl)pyrimidin-2-amine; bis(trifluoroacetic acid)] it is 50 to 200 nM. Regarding `Clc1ccc(-n2c(-c3ccccn3)cc3ccncc32)cc1` [Example 121, 2-[1-(4-Chlorophenyl)-1H-pyrrolo[2,3-c]pyridin-2-yl]pyridine], the IC50 is less than 50 nM. As for `Clc1ccc(-n2c(-c3cncnc3)cc3ccncc32)cc1` [Example 123], the IC50 was less than 50 nM. `Clc1ccc(-n2c(-c3cnccn3)cc3ccncc32)cc1` [Example 124, 2-[1-(4-Chlorophenyl)-1H-pyrrolo[2,3-c]pyridin-2-yl]pyrazine]: the IC50 was less than 50 nM.
